The results in this text go back to patent publication US10221125B2, “Solid forms” (Oryzon Genomics, S.A., priority 2015, dated 2019).

What all share (assay type): physicochemical
The nature of data set [1]: Thermal behaviour on heating/cooling (temperature controlled XRPD). Here is the method: For temperature controlled XRPD measurements, the sample was placed without further processing (e.g. grinding or sieving) in a quartz glass capillary of 1 mm diameter and sealed. Measurements were performed with a STOE high-/low-temperature extension (temperature range −50° C. to 300° C.) with am NiCr/Ni-thermal element at a ramp rate of 5° C. per minute, temperature steps every 5° C., 30 minutes measuring time per step, […]

The nature of data set [2]: Stability of the di-hydrochloric acid salt (decomposition, release of HCl).
The nature of data set [3]: Hygroscopicity (mass increase when relative humidity is raised from 0% rH to 90% rH). Particulars: increase in mass. An excerpt:
The term “hygroscopicity” describes the ability of a solid material to adsorb moisture. The hygroscopicity of a given API is characterized [European Pharmacopoeia—6th Edition (2008), Chapter 5.11) by the increase in mass when the relative humidity is raised from 0% rH to 90% rH: • non-hygroscopic: weight increase Δm<0.2%; • slightly hygroscopic: weight increase 0.2%≤Δm<2.0%; • hygroscopic: weight increase 2.0%≤Δm<15.0%; • very hygroscopic: weight increase Δm≥15.0%; • a deliquescent: sufficient water is adsorbed to form a liquid.

A short description of data set [4]: Long-term incubation/storage at elevated temperature or elevated humidity (phase change).
Data set [5] in a line: Long term equilibration slurry experiments (polymorph stability).

SMILES strings stand for the structures. Structures can show the parent of a compound that is named as a salt.

With `N[C@H]1CC[C@H](N[C@@H]2C[C@H]2c2ccccc2)CC1` [Form C, (trans)-N1-((1R,2S)-2-phenylcyclopropyl)cyclohexane-1,4-diamine di-hydrochloride], the polymorph stability description entry in data set [1] was “unstable high-temperature polymorph”.
Turning to `N[C@H]1CC[C@H](N[C@@H]2C[C@H]2c2ccccc2)CC1` [(trans)-N1-((1R,2S)-2-phenylcyclopropyl)cyclohexane-1,4-diamine di-hydrochloride], in data set [2], the “stability of di-hydrochloric acid salt (decomposition to mono-hydrochloride, release of corrosive hydrochloric acid)” value was “does not decompose and release corrosive hydrochloric acid”.
Take `N[C@H]1CC[C@H](N[C@@H]2C[C@H]2c2ccccc2)CC1` [Form A, (trans)-N1-((1R,2S)-2-phenylcyclopropyl)cyclohexane-1,4-diamine di-hydrochloride]: in data set [3], the hygroscopicity result is listed as “slightly hygroscopic (slightly hygroscopic: weight increase 0.2%≤Δm<2.0%)”. Also, the “phase change to Form B on long term storage” value in data set [4] (increased humidity, e.g. 100% rH) is on record as “does not induce a phase change to Form B”.
Consider `N[C@H]1CC[C@H](N[C@@H]2C[C@H]2c2ccccc2)CC1` [Form B, (trans)-N1-((1R,2S)-2-phenylcyclopropyl)cyclohexane-1,4-diamine di-hydrochloride], for which the hygroscopicity entry in data set [3] is “slightly hygroscopic (slightly hygroscopic: weight increase 0.2%≤Δm<2.0%)”. The “stability as compared to Form A” value in data set [4] is “substantially increased”. The “phase change during long-term incubation” value in data set [4] (elevated temperature or elevated humidity, even at 100% rH) is “no phase-change is observed”. Further, in data set [1] (heating of Form B), the “formation of Form C upon heating” value is recorded as “cannot be prepared upon heating of Form B”. Moreover, the decomposition temperature entry in data set [1] (on heating, di-hydrochloride) is “above 210 °C”. The polymorph stability ranking entry in data set [5] is listed as “most stable polymorph”.
